Test results taken from US10538561B2, “Peptide for treating inflammatory diseases” (priority 2015, dated 2020).

Experiments:
[1] = system: Human endothelial cells (EA.hy 926); test: Inhibition of FBS stimulated endothelial cell proliferation (MTT); format: cell-based; details: for Absorbance (Mean ± SD) at 540 nm: EA.hy926, 10% FBS, 72 h
Procedure: Cell line: Human endothelial cells (EA.hy 926); test item: IS 181: treatment regimen: multiple additions (3)-72 hours; concentration range: 1 6 g/ml to 5000 6 g/ml (triplicate wells); sera condition: medium containing 10% FBS. […] The cells were then subjected to complete serum starvation. The cells were retreated with 10% FBS to stimulate cellular proliferation. […] Inhibition of FBS stimulated cell proliferation was measured using MTT assay. End point: percentage inhibition of FBS stimulated cell proliferation. Positive controls: anthralin; paclitaxel.

[2] = in vitro; details: human
Procedure: The cells were then incubated for 72 hours. Percentage cytotoxicity was determined using MTT assay.

[3] = system: VEGF; test: VEGF inhibition in keratinocytes (ELISA); format: cell-based, Human; design: inhibition of VEGF secretion as compared to untreated (basal) levels: dose or concentration left out as unconfirmed; details: HaCaT; for % Inhibition of VEGF wrt untreated (basal) levels / Conc. of VEGF: 24 h
Procedure: Cell lines: Human Keratinocytes (HaCaT); test item: IS181; treatment regimen: single addition—24 hours; concentration range: 0.1 μg/ml-100 μg/ml. […] Cells were serum-starved for another 24 hours (0% FBS). Cells were treated with IS181 for 24 hours. Supernatants were collected and stored at −20° C. till analysed. Levels of VEGF were analysed in supernatants by ELISA. Percent inhibition of VEGF secretion was calculated with reference to untreated levels. Positive control: curcumin; retinoic acid (at non-cytotoxic concentrations).

[4] = system: IL-6; test: LPS+PMA stimulated IL-6 secretion in HaCaT; format: cell-based, Human; details: 24 h
Procedure: (§1) Effect on pro-inflammatory cytokines against TNF-α/LPS+PMA stimulation: TNF-α; IFN-γ; TARC; TSLP; IL-6; IL-8: Cell lines: Human keratinocytes (HaCaT); test item (TI); IS181; experimental steps: pre-treatment of cells with TI for 2 hours; stimulation with TNF-α: 20 ng/ml; stimulation with LPS+PMA-10 μg/ml LPS+40 ng/ml PMA; supernatant collection for cytokine analysis after 24 hours; concentration range: 0.1 μg/ml-100 μg/ml (duplicate wells); cytokines: TNF-α; IFN-γ; TARC; TSLP; IL-6; IL-8. Method of estimating cytokines: ELISA; positive control: dexamethasone.
(§2) Cell line: HaCaT (Human Keratinocytes); TI Treatment regimen: Pretreatment for 2 h; TI Concentration range: 0.1 μg/ml-100 μg/ml (duplicate wells); TNF-α stimulation: 20 ng/ml; LPS+PMA stimulation: 10 μg/ml LPS+40 ng/ml PMA; Time point for supernatants collection: 24 h; Method of estimation: ELISA; Positive control: Dexamethasone

[5] = system: TARC; test: TNF-α stimulated TARC secretion in HaCaT; format: cell-based, Human; details: for TARC % decrease with respect to TNF-α / TARC Conc: HaCaT + TNF-α, 24 h
Procedure: as §1, §2

[6] = target: FLT1 (VEGFR1) (Homo sapiens, UniProt P17948); test: Biochemical kinase assay FLT1; details: cell free
Procedure: Test system: cell free assays; test items: IS181; concentrations tested: 1 ng/ml-5000 μg/ml; Kinases: a) Cell free assays: EGFR (ErbB1); FLT1 (VEGFR1); JAK1; JAK3 MAP2K1 (MEK1); PDGFRA (PDGFR alpha); PRKCA (PKC alpha); b) cell based assay: JAK-STAT.

Sequence of FLT1 (VEGFR1) (P17948 27-1338): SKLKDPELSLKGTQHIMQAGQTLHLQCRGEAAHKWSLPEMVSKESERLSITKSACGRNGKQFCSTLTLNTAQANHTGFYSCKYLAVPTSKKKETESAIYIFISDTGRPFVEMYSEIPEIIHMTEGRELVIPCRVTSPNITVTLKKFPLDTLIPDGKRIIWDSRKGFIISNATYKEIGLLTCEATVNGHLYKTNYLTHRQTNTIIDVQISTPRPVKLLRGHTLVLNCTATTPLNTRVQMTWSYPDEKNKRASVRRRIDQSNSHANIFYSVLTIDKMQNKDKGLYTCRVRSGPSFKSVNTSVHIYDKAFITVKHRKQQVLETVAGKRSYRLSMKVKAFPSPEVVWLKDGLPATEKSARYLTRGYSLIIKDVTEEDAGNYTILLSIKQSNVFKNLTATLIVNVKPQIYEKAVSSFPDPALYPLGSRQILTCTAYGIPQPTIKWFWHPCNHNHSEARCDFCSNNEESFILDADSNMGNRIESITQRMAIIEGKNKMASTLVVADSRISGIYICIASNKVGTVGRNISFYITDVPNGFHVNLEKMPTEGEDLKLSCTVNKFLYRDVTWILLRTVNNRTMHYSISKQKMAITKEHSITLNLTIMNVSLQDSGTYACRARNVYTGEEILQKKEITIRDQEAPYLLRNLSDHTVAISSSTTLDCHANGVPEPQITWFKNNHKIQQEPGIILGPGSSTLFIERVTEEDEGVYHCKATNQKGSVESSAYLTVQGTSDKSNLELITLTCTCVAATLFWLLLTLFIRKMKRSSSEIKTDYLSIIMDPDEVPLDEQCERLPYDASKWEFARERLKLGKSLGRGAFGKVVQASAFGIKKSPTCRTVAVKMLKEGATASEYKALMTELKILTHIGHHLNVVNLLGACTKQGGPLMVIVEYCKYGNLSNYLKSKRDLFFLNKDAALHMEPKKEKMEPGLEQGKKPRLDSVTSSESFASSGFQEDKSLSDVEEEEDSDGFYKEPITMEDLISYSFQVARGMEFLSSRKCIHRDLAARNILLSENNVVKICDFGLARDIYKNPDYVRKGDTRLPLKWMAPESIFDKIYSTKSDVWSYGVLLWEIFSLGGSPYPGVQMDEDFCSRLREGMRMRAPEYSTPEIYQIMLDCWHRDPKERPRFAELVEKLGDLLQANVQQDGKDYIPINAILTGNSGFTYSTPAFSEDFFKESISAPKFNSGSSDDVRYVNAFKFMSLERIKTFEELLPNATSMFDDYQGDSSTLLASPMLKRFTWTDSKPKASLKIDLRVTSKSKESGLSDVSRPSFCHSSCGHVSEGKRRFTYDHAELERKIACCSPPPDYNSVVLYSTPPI

H-WVQRVVEKFLK-OH [IS181, H-Trp-Val-Gln-Arg-Val-Val-Glu-Lys-Phe-Leu-Lys-OH]
inhibition of FBS stimulated cell proliferation ([1]; EA.hy926, 5 μg/ml to 1000 μg/ml): significant inhibition | cytotoxic effects ([1]; EA.hy926, 2000 μg/ml to 5000 μg/ml): cytotoxic effects | Absorbance (Mean ± SD) at 540 nm ([1]; 1 μg/ml): 0.48 ± 0.006 | Absorbance (Mean ± SD) at 540 nm ([1]; 5 μg/ml): 0.45 ± 0.027 | Absorbance (Mean ± SD) at 540 nm ([1]; 10 μg/ml): 0.46 ± 0.012 | Absorbance (Mean ± SD) at 540 nm ([1]; 50 μg/ml): 0.41 ± 0.011 | Absorbance (Mean ± SD) at 540 nm ([1]; 100 μg/ml): 0.41 ± 0.012 | Absorbance (Mean ± SD) at 540 nm ([1]; 500 μg/ml): 0.33 ± 0.004 | Absorbance (Mean ± SD) at 540 nm ([1]; 1000 μg/ml): 0.22 ± 0.008 | Absorbance (Mean ± SD) at 540 nm ([1]; 2000 μg/ml): 0.09 ± 0.0003 | cytotoxicity at 72 h, 5000 μg/ml ([2]; HaCaT keratinocyte cells): 96.1% | cytotoxicity at 72 h, 10 μg/ml ([2]; HaCaT keratinocytes): 16.7% | cytotoxicity at 72 h, 50 μg/ml ([2]; HaCaT keratinocytes): 17.8% | cytotoxicity at 72 h, 500 μg/ml ([2]; HaCaT keratinocytes): 26.9% | cytotoxicity at 72 h, 1000 μg/ml ([2]; HaCaT keratinocytes): 82.8% | cytotoxicity at 72 h, 2000 μg/ml ([2]; HaCaT keratinocytes): 75% | inhibition of VEGF secretion as compared to untreated (basal) levels [3]: 11.1%-17% | % Inhibition of VEGF wrt untreated (basal) levels ([3]; 0.1 μg/ml): 17.0% | Conc. of VEGF ([3]; 0.1 μg/ml): 2982.4 pg/mL | % Inhibition of VEGF wrt untreated (basal) levels ([3]; 1 μg/ml): 12.6% | Conc. of VEGF ([3]; 1 μg/ml): 3139.7 pg/mL | % Inhibition of VEGF wrt untreated (basal) levels ([3]; 5 μg/ml): 11.1% | Conc. of VEGF ([3]; 5 μg/ml): 3193.5 pg/mL | % Inhibition of VEGF wrt untreated (basal) levels ([3]; 10 μg/ml): 12.9% | Conc. of VEGF ([3]; 10 μg/ml): 3128.2 pg/mL | % Inhibition of VEGF wrt untreated (basal) levels ([3]; 100 μg/ml): 0.7% | Conc. of VEGF ([3]; 100 μg/ml): 3565.8 pg/mL | IL-6 % decrease with respect to LPS + PMA ([4]; 0.1 μg/ml): −58.3% | IL-6 Conc ([4]; 0.1 μg/ml): 23.7 pg/mL | IL-6 % decrease with respect to LPS + PMA ([4]; 1 μg/ml): −78.5% | IL-6 Conc ([4]; 1 μg/ml): 26.7 pg/mL | IL-6 % decrease with respect to LPS + PMA ([4]; 5 μg/ml): −56.5% | IL-6 Conc ([4]; 5 μg/ml): 23.4 pg/mL | IL-6 % decrease with respect to LPS + PMA ([4]; 10 μg/ml): −48.0% | IL-6 Conc ([4]; 10 μg/ml): 22.1 pg/mL | IL-6 % decrease with respect to LPS + PMA ([4]; 100 μg/ml): −160.6% | IL-6 Conc ([4]; 100 μg/ml): 39.0 pg/mL | TARC inhibition ([5]; HaCaT): good extent of IFN-γ and TARC inhibition | TARC % decrease with respect to TNF-α ([5]; 0.1 μg/ml): 28.6% | TARC Conc ([5]; 0.1 μg/ml): 43.2 pg/mL | TARC % decrease with respect to TNF-α ([5]; 1 μg/ml): 11.3% | TARC Conc ([5]; 1 μg/ml): 53.6 pg/mL | TARC % decrease with respect to TNF-α ([5]; 5 μg/ml): 1.5% | TARC Conc ([5]; 5 μg/ml): 59.5 pg/mL | TARC % decrease with respect to TNF-α ([5]; 10 μg/ml): 5.3% | TARC Conc ([5]; 10 μg/ml): 57.3 pg/mL | TARC % decrease with respect to TNF-α ([5]; 100 μg/ml): −22.6% | TARC Conc ([5]; 100 μg/ml): 74.1 pg/mL | inhibition at 50 µg/mL ([6]; 50 μg/ml): 44% | inhibition at 100 µg/mL ([6]; 100 μg/ml): -16% | inhibition at 250 µg/mL ([6]; 250 μg/ml): -28% | inhibition at 500 µg/mL ([6]; 500 μg/ml): -44% | inhibition at 1000 µg/mL ([6]; 1000 μg/ml): -110%
